Test results from US7605227B2, “Melanoma antigen peptide analogues” (MannKind Corporation, priority 2005, dated 2009).
Square brackets hold non-standard residues; d marks the D form. Ends that are not written are not given here. Peptide text beside a SMILES is read from it. Phe(4-NO2) = N[C@@H](Cc1ccc([N+](=O)[O-])cc1)C(=O)O; Bta = N[C@@H](Cc1csc2ccccc12)C(=O)O; Phg = N[C@H](C(=O)O)c1ccccc1; Nle = CCCC[C@H](N)C(=O)O; Nva = CCC[C@H](N)C(=O)O

Columns and labels:
HLA-A*0201 = HLA-A*0201 (Homo sapiens, UniProt P04439, D140Y/D185E/D98H/E176V/E277Q/G131W/G231S/I119V/I121R/I166T/I218V/L300P/L318F/N151K/N90K/P208A/P217A/Q86G/Q94H/R138H/R169H/T345S); test: Peptide binding using T2 cells (SSX-2 41-49 analogs); details: for Relative affinity (1/RA): half maximal binding of wild-type peptide relative to analog, native = 1.0
Description: Thus, at limiting concentrations of peptide, it is a measurement of Kon mostly and at saturation levels of peptide it is a measurement of both Kon and Koff.

[1] = system: T cell lines against a natural (non-mutated) epitope (SSX-241-49); test: Cross-reactivity and functional avidity: IFN-gamma from T cell lines against natural SSX-2 41-49 epitope; assay type: cell-based, HHD transgenic mice; details: for Cross-reactivity and fct avidity (native to analogs)*: IFN-gamma from T cell line raised against native SSX-2 41-49, native = 1, lower = more active;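 as to all read-outs here: peptide analogs tested ex vivo with competent APCs, IFN-gamma in supernatant measured by ELISA, readouts include minimal triggering concentration, peak effect and concentration at peak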
[2] = system: T cells that recognized native PSMA288-297 peptide; test: Peptide immunization with PSMA analogs, IFN-gamma ELISPOT against native peptide; assay type: in vivo, HHD transgenic mice; details: peptide + pI:C intranodal immunization
Description: Groups of HHD transgenic mice (n=8) were immunized with peptide (natural epitope PSMA288-297, or analogs bearing substitutions at primary or secondary anchor residues) by direct inoculation into the inguinal lymph nodes, with 25 μg in 25 μl of PBS+12.5 μg of pI:C to each lymph node at day 0, 3, 14 and 17.
Mice were sacrificed at 10 days after the last boost, and splenocytes prepared and assessed for IFN-γ production by ELISPOT analysis. […] At 48 hours after incubation, the assay was developed and the frequency of cytokine-producing T cells that recognized native PSMA288-297 peptide was automatically counted. The data is represented in FIG. 22 as the number of spot forming colonies/well (mean of triplicates±SD). […] To the extent that the poor immunogenicity of the native epitope reflects tolerance, the improved activity of these analogs represents tolerance breaking.

[3] = system: PRAME+ A2+ 624.38 melanoma cells; test: PRAME immunization, ex vivo cytotoxicity against human tumor cells; assay type: in vivo, HHD transgenic mice; details: mouse, in vivo
Description: This was followed by two peptide boosts (2.5 μg) at day 28 and 31, with the analog L426Nva L433Nle.

Row | Compound | Relative affinity (1/RA) (HLA-A*0201) | Cross-reactivity and fct avidity (native to analogs)* [1] | also measured
1 | CC[C@H](C)[C@H](NC(=O)[C@H](CCCCN)NC(=O)[C@H](CCC(=O)O)NC(=O)[C@H](CO)NC(=O)[C@@H](NC(=O)[C@@H](N)Cc1ccccc1)C(C)C)C(=O)N[C@@H](Cc1ccccc1)C(=O)N[C@@H](Cc1ccccc1)C(=O)N[C@H](C(=O)O)C(C)C [SSX2 41-49 (K41F, A42V, Y48F)] | 1.7 | 10 | –
2 | FVSEKLFYV [SSX2 41-49 (K41F, A42V, I46L)] | 1.9 | 3 | –
3 | FVSEKLFSA | 2.4 | >10 | –
4 | FVSDKIFYV [SSX2 41-49 (K41F, A42V, E44D)] | 1.1 | >10 | –
5 | KLSEKIFYI [SSX2 41-49 (A42L, V49I)] | 2.6 | 0.03 | –
6 | FVSQKIFYV [SSX2 41-49 (K41F, A42V, E44Q)] | 0.4 | 10 | –
7 | CCCC[C@H](NC(=O)[C@H](CO)NC(=O)[C@@H](NC(=O)[C@@H](N)Cc1ccccc1)C(C)C)C(=O)N[C@@H](CCCCN)C(=O)N[C@H](C(=O)N[C@@H](Cc1ccccc1)C(=O)N[C@@H](Cc1ccc(O)cc1)C(=O)N[C@H](C(=O)O)C(C)C)[C@@H](C)CC [SSX2 41-49 (K41F, A42V, E44Nle), FVS(Nle)KIFYV] (H-FVS[Nle]KIFYV-OH) | 1.1 | 10 | –
8 | CC[C@H](C)[C@H](NC(=O)[C@H](CCCCN)NC(=O)[C@H](CCC(=O)O)NC(=O)[C@H](CO)NC(=O)[C@@H](NC(=O)[C@@H](N)Cc1ccccc1)C(C)C)C(=O)N[C@@H](Cc1ccccc1)C(=O)N[C@H](C(=O)N[C@H](C(=O)O)C(C)C)c1ccccc1 [SSX2 41-49 (K41F, A42V, Y48Phg), FVSEKIF(Phg)V] (H-FVSEKIF[Phg]V-OH) | 2.5 | >10 | –
9 | GLWSIPVHPI [Peptide P290W] | – | – | IFN-γ ELISPOT response against native epitope, in words [2]: increased priming of immune responses against the native epitope
10 | WLSEKIFYV [SSX2 41-49 (K41W, A42L)] | 3.3 | 0.3 | –
11 | CCC[C@H](NC(=O)[C@H](CCCCN)NC(=O)[C@H](CCC(=O)O)NC(=O)[C@H](CO)NC(=O)[C@@H](NC(=O)[C@@H](N)Cc1ccccc1)C(C)C)C(=O)N[C@@H](Cc1ccccc1)C(=O)N[C@@H](Cc1ccc(O)cc1)C(=O)N[C@H](C(=O)O)C(C)C [SSX2 41-49 (K41F, A42V, I46Nva), FVSEK(Nva)FYV] (H-FVSEK[Nva]FYV-OH) | 2.4 | 1 | –
12 | {Abu}LPSIPVHPI [Peptide G288Abu] | – | – | IFN-γ ELISPOT response against native epitope, in words [2]: slightly higher (but significant) activity than the native peptide
13 | YMSEKIFYV [SSX2 41-49 (K41Y, A42M)] | 0.6 | 3 | –
14 | SLLQHLIGL [PRAME 425-433, reference compound] | – | – | ex vivo cytotoxicity against A2+ PRAME+ 624.38 cells, in words [3]: able to lyse human tumor cells
15 | I297Nva: PSMA288-297 analog with Nva for Ile at position 297 [Peptide I297Nva] | – | – | IFN-γ ELISPOT response against native epitope, in words [2]: slightly higher (but significant) activity than the native peptide
16 | FVSEKIFTV [SSX2 41-49 (K41F, A42V, Y48T)] | 3.8 | >10 | –
17 | KMSEKIFYV [SSX2 41-49 (A42M)] | 1.7 | 0.1 | –

Row | Compound | Relative affinity (1/RA) (HLA-A*0201) | Cross-reactivity and fct avidity (native to analogs)* [1] | also measured
18 | KASEKIFYI [SSX2 41-49 (V49I)] | 1.0 | 10 | –
19 | CC[C@H](C)[C@H](NC(=O)[C@H](CCCCN)NC(=O)[C@H](CCC(=O)O)NC(=O)[C@H](CO)NC(=O)[C@H](C)NC(=O)[C@@H](N)Cc1ccc(OC)cc1)C(=O)N[C@@H](Cc1ccccc1)C(=O)N[C@@H](Cc1ccc(O)cc1)C(=O)N[C@H](C(=O)O)C(C)C [SSX2 41-49 (K41(O-methyl Tyr))] (H-Y(Me)ASEKIFYV-OH) | 0.8 | 3 | –
20 | FVSEKIFYV [SSX2 41-49 (K41F, A42V)] | 3.1 | 0.1 | –
21 | FVSEKIFYM [SSX2 41-49 (K41F, A42V, V49M)] | 0.8 | >10 | –
22 | FVSEKIFSV [SSX2 41-49 (K41F, A42V, Y48S)] | 3.9 | >10 | –
23 | KISEKIFYV [SSX2 41-49 (A42I)] | 1.7 | 3 | –
24 | CCCC[C@H](NC(=O)[C@H](CCCCN)NC(=O)[C@H](CCC(=O)O)NC(=O)[C@H](CO)NC(=O)[C@@H](NC(=O)[C@@H](N)Cc1ccccc1)C(C)C)C(=O)N[C@@H](Cc1ccccc1)C(=O)N[C@@H](Cc1ccc(O)cc1)C(=O)N[C@H](C(=O)O)C(C)C [SSX2 41-49 (K41F, A42V, I46Nle), FVSEK(Nle)FYV] (H-FVSEK[Nle]FYV-OH) | 1.1 | 10 | –
25 | FISEKIFYV [SSX2 41-49 (K41F, A42I)] | 2.7 | 0.3 | –
26 | FVSEKLFTV [SSX2 41-49 (K41F, A42V, I46L, Y48T)] | 2.6 | >10 | –
27 | CCC[C@H](NC(=O)[C@H](CO)NC(=O)[C@@H](NC(=O)[C@@H](N)Cc1ccccc1)C(C)C)C(=O)N[C@@H](CCCCN)C(=O)N[C@H](C(=O)N[C@@H](Cc1ccccc1)C(=O)N[C@@H](Cc1ccc(O)cc1)C(=O)N[C@H](C(=O)O)C(C)C)[C@@H](C)CC [SSX2 41-49 (K41F, A42V, E44Nva), FVS(Nva)KIFYV] (H-FVS[Nva]KIFYV-OH) | 3.9 | 3 | –
28 | CC[C@H](C)[C@H](NC(=O)[C@H](CCCCN)NC(=O)[C@H](CCC(=O)O)NC(=O)[C@H](CO)NC(=O)[C@H](C)NC(=O)[C@@H](N)c1ccccc1)C(=O)N[C@@H](Cc1ccccc1)C(=O)N[C@@H](Cc1ccc(O)cc1)C(=O)N[C@H](C(=O)O)C(C)C [SSX2 41-49 (K41(Phg))] (H-[Phg]ASEKIFYV-OH) | 2.5 | 0.1 | –
29 | CC[C@H](C)[C@H](NC(=O)[C@H](CCCCN)NC(=O)[C@H](CCC(=O)O)NC(=O)[C@H](CO)NC(=O)[C@H](C)NC(=O)[C@@H](N)Cc1csc2ccccc12)C(=O)N[C@@H](Cc1ccccc1)C(=O)N[C@@H](Cc1ccc(O)cc1)C(=O)N[C@H](C(=O)O)C(C)C [SSX2 41-49 (K41(b-(3-benzothienyl)Ala))] (H-[Bta]ASEKIFYV-OH) | 0.6 | 10 | –
30 | CC[C@H](C)[C@H](NC(=O)[C@H](CCCCN)NC(=O)[C@H](CCC(=O)O)NC(=O)[C@H](CO)NC(=O)[C@H](C)NC(=O)[C@@H](N)Cc1ccc([N+](=O)[O-])cc1)C(=O)N[C@@H](Cc1ccccc1)C(=O)N[C@@H](Cc1ccc(O)cc1)C(=O)N[C@H](C(=O)O)C(C)C [SSX2 41-49 (K41(Phe-4N02))] (H-[Phe(4-NO2)]ASEKIFYV-OH) | 1.1 | 3 | binding affinity (and stability) with HLA-A*0201 relative to wild-type, in words (HLA-A*0201; SSX-2 41-49 analogs): about the same as that of wild-type peptide; cross-reactivity / IFN-gamma inducing activity relative to wild-type, in words ([1]; SSX-2 41-49 analogs, wild-type specific T cells): much lower concentration
31 | WMSEKIFYV [SSX2 41-49 (K41W, A42M)] | 2.9 | 1 | –
32 | YLSEKIFYV [SSX2 41-49 (K41Y, A42L)] | 1.2 | – | –
33 | WVSEKIFYV [SSX2 41-49 (K41W, A42V)] | 3.0 | 1 | –
34 | CC[C@H](C)[C@H](NC(=O)[C@H](CCCCN)NC(=O)[C@H](CCC(=O)O)NC(=O)[C@H](CO)NC(=O)[C@@H](NC(=O)[C@@H](N)Cc1ccc(O)cc1)C(C)C)C(=O)N[C@@H](Cc1ccccc1)C(=O)N[C@@H](Cc1ccc(O)cc1)C(=O)N[C@H](C(=O)O)C(C)C [SSX2 41-49 (K41Y, A42V)] | 1.0 | 0.1 | –
